Assay results from PMC4805166, “Synthetic Cyclolipopeptides Selective against Microbial, Plant and Animal Cell Targets by Incorporation of D-Amino Acids or Histidine” (PLoS ONE, 2016).
Read-outs that look alike come from different tables or passages of the source. Where a SMILES comes first, the peptide text is derived from it. Side-chain parts run from the residue outwards. [ ]: non-standard residue; d: D form. The star is where a group is joined. Pentanoyl(4-Me) = CC(C)CCC(=O)*; Hexanoyl = CCCCCC(=O)*; Butyryl = CCCC(=O)*

What was measured:
[1] = system: Pseudomonas syringae pv. syringae EPS94; assay type: cell-based; settings: 48 h
In short: (§1)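 Peptide dilutions (stocks 500–31.1 μM) mixed 1:10 with 10^8 CFU/mL bacterial suspension in TSB. Incubated 25 °C, OD600 read hourly for 48 h, triplicates, repeated twice. MIC: lowest concentration with no growth at end.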

[2] = system: Xanthomonas axonopodis pv. vesicatoria 2133–2; assay type: cell-based; settings: TSB, 25°C, 48 h, OD 600 nm; tested at 3.1, 6.2, 12.5, 25, 50 μM; three replicates, experiment repeated twice; MIC = lowest concentration with no growth
In short: as §1

[3] = system: Erwinia amylovora PMV6076; assay: MIC, in vitro growth inhibition; assay type: cell-based; settings: TSB, 25°C, 48 h, OD 600 nm; tested at 3.1, 6.2, 12.5, 25, 50 μM; three replicates, experiment repeated twice; MIC = lowest concentration with no growth
In short: as §1

[4] = system: Fusarium oxysporum f. sp. lycopersici FOL 3 race 2; assay: MIC, antifungal growth inhibition; assay type: cell-based
In short: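 Microconidia are grown on PDA at 25 °C and adjusted to 10^4 conidia/mL. Peptide stocks of 500, 250, 125, 62.5 and 31.1 µM (stock, not final) are mixed with conidia in double-concentrated PDB with 0.003% chloramphenicol, in triplicate, and incubated at 20 °C. OD600 is read every 2 h for seven days, and MIC is the lowest concentration with no growth at the end.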

[5] = system: E. amylovora, P. syringae pv. syringae, X. axonopodis pv. vesicatoria and F. oxysporum; assay type: cell-based; settings: for Antimicrobial activity, in words: authors' overall judgement over the pathogens tested; for MIC against three pathogens: three of the four pathogens tested; for MIC values over the pathogens tested: span of MIC values over the four pathogens
Method: The following plant pathogenic bacterial strains were used: Erwinia amylovora PMV6076 (Institut National de la Recherche Agronomique, Angers, France), Pseudomonas syringae pv. syringae EPS94 (Institut de Tecnologia Agroalimentària, Universitat de Girona, Spain) and Xanthomonas axonopodis pv. vesicatoria 2133–2 (Instituto Valenciano de Investigaciones Agrarias, Valencia, Spain). All bacteria were stored in Luria Bertani (LB) broth supplemented with glycerol (20%) and maintained at -80°C. Bacteria were scrapped from LB agar after growing for 24–48 h at 25°C. The cell material was suspended in sterile water to obtain a suspension of 10^8 CFU mL^-1.
Fusarium oxysporum f. sp. lycopersici FOL 3 race 2 (ATCC 201829, American Type Culture Collection) was used as fungal pathogen. The strain was cultured on potato dextrose agar (PDA) plates (Difco) and microconidia were obtained after growth at 25°C. The concentration of conidia was determined using a hemacytometer and adjusted to 10^4 conidia mL^-1.
Lyophilized peptides were solubilized in sterile Milli-Q water to a final concentration of 1 mM and filter sterilized through a 0.22-μm pore filter. For minimum inhibitory concentration (MIC) assessment, dilutions of the compounds were made to obtain a stock concentration of […]. For antibacterial activity twenty microlitres of each dilution were mixed in a microtiter plate well with 20 μL of the corresponding suspension of the bacterial indicator, 160 μL of Trypticase Soy Broth (TSB) (BioMèrieux, France) to a total volume of 200 μL. For antifungal activity 20 μL of each stock solution were mixed in a microtiter plate well with 80 μL of the corresponding suspension of the fungal pathogen and 100 μL of double concentrated PDB to a total volume of 200 μL containing 0.003% w/v of choramphenicol.
Three replicates for each strain, compound and concentration were used. Microbial growth was determined by optical density measurement at 600 nm (Bioscreen C, Labsystem, Helsinki, Finland). For antibacterial activity microplates were incubated at 25°C with 20 sec shaking before hourly absorbance measurement for 48 h. For antifungal activity microplates were incubated at 20°C with 1 min shaking before absorbance measurement that were done every two hours during seven days. The experiment was repeated twice. The MIC was taken as the lowest compound concentration with no growth at the end of the experiment.

[6] = system: erythrocyte suspensions of horse blood; settings: horse erythrocytes 5% vol/vol, TRIS buffer pH 7.2, 1 h at 37°C, absorbance 540 nm, relative to melittin 100 μM, ± confidence interval (α = 0.05); for Hemolysis (%) 150 µM: 150 µM peptide; for Hemolysis (%) 250 µM: 250 µM peptide;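 for all read-outs here: Read-out is hemoglobin release into the supernatant, with a buffer-only blank subtracted as the 0% baseline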
[7] = PDB with 0.003% chloramphenicol, 20°C, seven days, OD 600 nm, tested at 3.1, 6.2, 12.5, 25, 50 μM, three replicates, repeated twice

Compound | MIC Pss [1] [µM] | MIC Xav [2] [µM] | MIC Ea [3] [µM] | MIC Fo [4] [µM] | MIC Fo [4, 7] [µM] | Antimicrobial activity, in words [5] | Hemolysis (%) 150 µM [6] [%] | MIC against three pathogens [5] [µM] | MIC values over the pathogens tested [5] [µM] | Hemolysis (%) 250 µM [6] [%] | MIC Pss ([1]; TSB, 25°C, OD 600 nm, tested at 3.1, 6.2, 12.5, 25, 50 μM, three replicates, experiment repeated twice, MIC = lowest concentration with no growth) [µM]
CC(C)C[C@@H]1NC(=O)[C@H](CCCCN)NC(=O)[C@H](CCCCN)NC(=O)[C@H](CCC(N)=O)NC(=O)[C@H](CC(C)C)NC(=O)[C@H](CCCCN)NC(=O)[C@H](CCCCN)NC(=O)[C@H](Cc2ccccc2)NC(=O)[C@H](CCCCN)NC(=O)[C@H](CCCCN)NC1=O [BPC194] (cyclo(FKKLQKKLKK)) | 3.1 to 6.2 | 3.1 to 6.2 | 6.2 to 12.5 | < 3.1 | <3.1 | high antimicrobial activity | 4 ± 1 |  |  |  | 
CC(C)CCC(=O)NCCCC[C@@H]1NC(=O)[C@H](CCCCN)NC(=O)[C@H](CC(C)C)NC(=O)[C@H](CCCCN)NC(=O)[C@H](CCCCN)NC(=O)[C@H](CCC(N)=O)NC(=O)[C@H](CC(C)C)NC(=O)[C@H](CCCCN)NC(=O)[C@H](CCCCN)NC(=O)[C@H](Cc2ccccc2)NC1=O [BPC504, c(KKLKK(CO-isoC5H11)FKKLQ)] (cyclo(FKKLQKKLKK(Pentanoyl(4-Me)))) | 6.2 to 12.5 | 3.1 to 6.2 | 12.5 to 25 |  | 3.1 to 6.2 |  | 89 ± 2 | < 12.5 |  |  | 
CCCCCC(=O)NCCCC[C@@H]1NC(=O)[C@H](CCCCN)NC(=O)[C@H](CC(C)C)NC(=O)[C@H](CCCCN)NC(=O)[C@H](CCCCN)NC(=O)[C@H](CCC(N)=O)NC(=O)[C@H](CC(C)C)NC(=O)[C@H](CCCCN)NC(=O)[C@H](CCCCN)NC(=O)[C@H](Cc2ccccc2)NC1=O [BPC528, c(KKLKK(CO-nC5H11)FKKLQ)] (cyclo(FKKLQKKLKK(Hexanoyl))) | 6.2 to 12.5 | 3.1 to 6.2 | 12.5 to 25 |  | 6.2 to 12.5 |  | 98 ± 7 | < 12.5 | 3.1 to 25 |  | 
CCCCCC(=O)NCCCC[C@@H]1NC(=O)[C@H](CCCCN)NC(=O)[C@H](CCC(N)=O)NC(=O)[C@H](CC(C)C)NC(=O)[C@H](CCCCN)NC(=O)[C@H](CCCCN)NC(=O)[C@H](Cc2ccccc2)NC(=O)[C@H](CCCCN)NC(=O)[C@H](CCCCN)NC(=O)[C@H](CC(C)C)NC1=O [BPC588] (cyclo(FKKLQKK(Hexanoyl)LKK)) | 6.2 to 12.5 | 3.1 to 6.2 | 12.5 to 25 |  | 6.2 to 12.5 |  | 95 ± 4 |  | 3.1 to 25 |  | 
CCCCCC(=O)NCCCC[C@@H]1NC(=O)[C@H](CCC(N)=O)NC(=O)[C@H](CC(C)C)NC(=O)[C@H](CCCCN)NC(=O)[C@H](CCCCN)NC(=O)[C@H](Cc2ccccc2)NC(=O)[C@H](CCCCN)NC(=O)[C@H](CCCCN)NC(=O)[C@H](CC(C)C)NC(=O)[C@H](CCCCN)NC1=O [BPC590] (cyclo(FKKLQK(Hexanoyl)KLKK)) | 6.2 to 12.5 | 3.1 to 6.2 | 6.2 to 12.5 |  | 12.5 to 25 |  | 100 ± 9 |  | 3.1 to 25 |  | 
CCCCCC(=O)N[C@@H](CCCCN)C(=O)N[C@@H](CC(C)C)C(=O)NCCCC[C@@H]1NC(=O)[C@H](CCCCN)NC(=O)[C@H](CC(C)C)NC(=O)[C@H](CCCCN)NC(=O)[C@H](CCCCN)NC(=O)[C@H](CCC(N)=O)NC(=O)[C@H](CC(C)C)NC(=O)[C@H](CCCCN)NC(=O)[C@H](CCCCN)NC(=O)[C@H](Cc2ccccc2)NC1=O [BPC596, c(KKLKK(LK-CO-nC5H11)FKKLQ)] (cyclo(FKKLQKKLKK([Leu-Lys-Hexanoyl]))) | 6.2 to 12.5 | <3.1 | 12.5 to 25 |  | 12.5 to 25 | important antimicrobial activity | 93 ± 5 |  |  | 100 ± 11 | 
CCCCCC(=O)NCCCC[C@H]1NC(=O)[C@H](CCCCN)NC(=O)[C@H](CC(C)C)NC(=O)[C@H](CCCCN)NC(=O)[C@H](CCCCN)NC(=O)[C@H](CCC(N)=O)NC(=O)[C@H](CC(C)C)NC(=O)[C@H](CCCCN)NC(=O)[C@H](CCCCN)NC(=O)[C@@H](Cc2ccccc2)NC1=O [BPC632, c(KKLKk(CO-nC5H11)fKKLQ)] (cyclo(KKLK[dK](Hexanoyl)[dF]KKLQ)) | 12.5 to 25 | 25 to 50 | 25 to 50 |  | 12.5 to 25 | low active | 21 ± 13 |  |  | 22 ± 10 | 
CCCC(=O)N[C@@H](CCCCN)C(=O)N[C@@H](CC(C)C)C(=O)NCCCC[C@H]1NC(=O)[C@H](CCCCN)NC(=O)[C@H](CC(C)C)NC(=O)[C@H](CCCCN)NC(=O)[C@H](CCCCN)NC(=O)[C@H](CCC(N)=O)NC(=O)[C@H](CC(C)C)NC(=O)[C@H](CCCCN)NC(=O)[C@H](CCCCN)NC(=O)[C@H](Cc2ccccc2)NC1=O [BPC724, c(KKLKk(LK-CO-C3H7)FKKLQ)] (cyclo(FKKLQKKLK[dK]([Leu-Lys-Butyryl]))) | 12.5 to 25 | 6.2 to 12.5 | 25 to 50 |  | <3.1 |  | 3 ± 2 |  |  | 3 ± 0.5 | 
CCCC(=O)N[C@@H](CCCCN)C(=O)N[C@@H](CC(C)C)C(=O)NCCCC[C@@H]1NC(=O)[C@H](CCCCN)NC(=O)[C@H](CC(C)C)NC(=O)[C@H](CCCCN)NC(=O)[C@H](CCCCN)NC(=O)[C@H](CCC(N)=O)NC(=O)[C@H](CC(C)C)NC(=O)[C@H](CCCCN)NC(=O)[C@H](CCCCN)NC(=O)[C@@H](Cc2ccccc2)NC1=O [BPC726, c(KKLKK(LK-CO-C3H7)fKKLQ)] (cyclo(KKLKK([Leu-Lys-Butyryl])[dF]KKLQ)) | 12.5 to 25 | 6.2 to 12.5 | 25 to 50 |  | 3.1 to 6.2 |  | 0 ± 1 |  |  | 4 ± 2 | 
c(KKLKK(CO-C8H17)FKKLQ) [BPC594] |  | 3.1 to 6.2 | 25 to 50 |  | 6.2 to 12.5 |  |  | < 12.5 |  |  | 6.2 to 12.5
